Data taken from article PMC6394493 (Cancer Chemotherapy and Pharmacology, 2018).

Assay: Safety assessment: adverse events
Format: in vivo, Japanese patients
Excerpt: Safety assessments consisted of monitoring and recording of all AEs, including laboratory abnormalities and vital signs. DLTs were defined as an AE or a laboratory abnormality assessed as related to the study drug and occurring within the first 28 days of treatment (Cycle 1), as defined in Supplemental Table S1.

[1] = bid 400 mg N = 8, regardless of study drug relationship
[2] = qd 400 mg (n = 3), regardless of study drug relationship
[3] = qd 800 mg (n = 3), regardless of study drug relationship
[4] = qd 1000 mg (n = 8), regardless of study drug relationship

Cn1c(=O)n(-c2ccc(C(C)(C)C#N)cc2)c2c3cc(-c4cnc5ccccc5c4)ccc3ncc21 [BEZ235]
study drug-related SAE (1000 mg qd): grade 2 colitis
patients requiring dose reduction in Cycle 2 (1200 mg qd): two out of six
patients requiring dose interruption due to AEs (1400 mg qd): six
patients requiring dose reduction in early cycles (1400 mg qd): three
study drug-related SAE (1400 mg qd): grade 2 Pneumocystis jiroveci pneumonia
AEs Total, All grades [1]: 8 (100.0) n (%)
AEs Total, Grade ¾ [1]: 7 (87.5) n (%)
Alanine aminotransferase increased, All grades [1]: 4 (50.0) n (%)
Alanine aminotransferase increased, Grade ¾ [1]: 0 n (%)
Anxiety, All grades [1]: 2 (25.0) n (%)
Anxiety, Grade ¾ [1]: 0 n (%)
Aspartate aminotransferase increased, All grades [1]: 4 (50.0) n (%)
Aspartate aminotransferase increased, Grade ¾ [1]: 1 (12.5) n (%)
Blood alkaline phosphatase increased, All grades [1]: 2 (25.0) n (%)
Blood alkaline phosphatase increased, Grade ¾ [1]: 0 n (%)
Blood creatinine increased, All grades [1]: 3 (37.5) n (%)
Blood creatinine increased, Grade ¾ [1]: 0 n (%)
Cancer pain, All grades [1]: 3 (37.5) n (%)
Cancer pain, Grade ¾ [1]: 2 (25.0) n (%)
Cheilitis, All grades [1]: 3 (37.5) n (%)
Cheilitis, Grade ¾ [1]: 0 n (%)
Decreased appetite, All grades [1]: 7 (87.5) n (%)
Decreased appetite, Grade ¾ [1]: 1 (12.5) n (%)
Diarrhea, All grades [1]: 7 (87.5) n (%)
Diarrhea, Grade ¾ [1]: 1 (12.5) n (%)
Dry skin, All grades [1]: 4 (50.0) n (%)
Dry skin, Grade ¾ [1]: 0 n (%)
Dysphagia, All grades [1]: 3 (37.5) n (%)
Dysphagia, Grade ¾ [1]: 0 n (%)
Fatigue, All grades [1]: 5 (62.5) n (%)
Fatigue, Grade ¾ [1]: 1 (12.5) n (%)
Gamma-glutamyltransferase increased, All grades [1]: 2 (25.0) n (%)
Gamma-glutamyltransferase increased, Grade ¾ [1]: 0 n (%)
Haemoglobin decreased, All grades [1]: 4 (50.0) n (%)
Haemoglobin decreased, Grade ¾ [1]: 1 (12.5) n (%)
Hyperkalaemia, All grades [1]: 2 (25.0) n (%)
Hyperkalaemia, Grade ¾ [1]: 0 n (%)
Hypoalbuminaemia, All grades [1]: 4 (50.0) n (%)
Hypoalbuminaemia, Grade ¾ [1]: 1 (12.5) n (%)
Hyponatraemia, All grades [1]: 2 (25.0) n (%)
Hyponatraemia, Grade ¾ [1]: 1 (12.5) n (%)
Insomnia, All grades [1]: 4 (50.0) n (%)
Insomnia, Grade ¾ [1]: 0 n (%)
Lymphopenia, All grades [1]: 4 (50.0) n (%)
Lymphopenia, Grade ¾ [1]: 2 (25.0) n (%)
Malaise, All grades [1]: 2 (25.0) n (%)
Malaise, Grade ¾ [1]: 1 (12.5) n (%)
Nausea, All grades [1]: 7 (87.5) n (%)
Nausea, Grade ¾ [1]: 0 n (%)
Pyrexia, All grades [1]: 2 (25.0) n (%)
Pyrexia, Grade ¾ [1]: 0 n (%)
Rash, All grades [1]: 4 (50.0) n (%)
Rash, Grade ¾ [1]: 0 n (%)
Stomatitis, All grades [1]: 5 (62.5) n (%)
Stomatitis, Grade ¾ [1]: 0 n (%)
Thrombocytopenia, All grades [1]: 5 (62.5) n (%)
Thrombocytopenia, Grade ¾ [1]: 2 (25.0) n (%)
Urinary tract infection, All grades [1]: 2 (25.0) n (%)
Urinary tract infection, Grade ¾ [1]: 0 n (%)
Vomiting, All grades [1]: 4 (50.0) n (%)
Vomiting, Grade ¾ [1]: 0 n (%)
study drug-related SAE (bid dosing group, one patient): grade 4 diarrhea
patients with Grade 3 or 4 AEs (bid dosing, seven patients): 87.5%
study drug discontinuation due to AEs (bid group, one patient): 12.5%
grade 3 or 4 lymphopenia suspected to be study drug-related (bid group, two patients): 25.0%
grade 3 or 4 thrombocytopenia suspected to be study drug-related (bid group, two patients): 25.0%
deaths during the study period (including a 30-day follow-up, qd and bid): No patient died
AEs Total, All grades [2]: 3 (100.0) n (%)
AEs Total, Grade ¾ [2]: 2 (66.7) n (%)
Alanine aminotransferase increased, All grades [2]: 2 (66.7) n (%)
Alanine aminotransferase increased, Grade ¾ [2]: 0 n (%)
Blood alkaline phosphatase increased, All grades [2]: 1 (33.3) n (%)
Blood alkaline phosphatase increased, Grade ¾ [2]: 0 n (%)
Cancer pain, All grades [2]: 2 (66.7) n (%)
Cancer pain, Grade ¾ [2]: 1 (33.3) n (%)
Decreased appetite, All grades [2]: 2 (66.7) n (%)
Decreased appetite, Grade ¾ [2]: 0 n (%)
Diarrhea, All grades [2]: 2 (66.7) n (%)
Diarrhea, Grade ¾ [2]: 0 n (%)
Dysgeusia, All grades [2]: 0 n (%)
Dysgeusia, Grade ¾ [2]: 0 n (%)
Fatigue, All grades [2]: 1 (33.3) n (%)
Fatigue, Grade ¾ [2]: 0 n (%)
Leukopenia, All grades [2]: 0 n (%)
Leukopenia, Grade ¾ [2]: 0 n (%)
Lymphopenia, All grades [2]: 2 (66.7) n (%)
Lymphopenia, Grade ¾ [2]: 2 (66.7) n (%)
Nausea, All grades [2]: 3 (100.0) n (%)
Nausea, Grade ¾ [2]: 0 n (%)
Neutropenia, All grades [2]: 0 n (%)
Neutropenia, Grade ¾ [2]: 0 n (%)
Pyrexia, All grades [2]: 1 (33.3) n (%)
Pyrexia, Grade ¾ [2]: 0 n (%)
Rash, All grades [2]: 1 (33.3) n (%)
Rash, Grade ¾ [2]: 0 n (%)
Stomatitis, All grades [2]: 2 (66.7) n (%)
Stomatitis, Grade ¾ [2]: 0 n (%)
Thrombocytopenia, All grades [2]: 0 n (%)
Thrombocytopenia, Grade ¾ [2]: 0 n (%)
Vomiting, All grades [2]: 2 (66.7) n (%)
Vomiting, Grade ¾ [2]: 0 n (%)
AEs Total, All grades [3]: 3 (100.0) n (%)
AEs Total, Grade ¾ [3]: 1 (33.3) n (%)
Alanine aminotransferase increased, All grades [3]: 0 n (%)
Alanine aminotransferase increased, Grade ¾ [3]: 0 n (%)
Blood alkaline phosphatase increased, All grades [3]: 0 n (%)
Blood alkaline phosphatase increased, Grade ¾ [3]: 0 n (%)
Cancer pain, All grades [3]: 2 (66.7) n (%)
Cancer pain, Grade ¾ [3]: 0 n (%)
Decreased appetite, All grades [3]: 3 (100.0) n (%)
Decreased appetite, Grade ¾ [3]: 0 n (%)
Diarrhea, All grades [3]: 3 (100.0) n (%)
Diarrhea, Grade ¾ [3]: 0 n (%)
Dysgeusia, All grades [3]: 1 (33.3) n (%)
Dysgeusia, Grade ¾ [3]: 0 n (%)
Fatigue, All grades [3]: 2 (66.7) n (%)
Fatigue, Grade ¾ [3]: 0 n (%)
Leukopenia, All grades [3]: 1 (33.3) n (%)
Leukopenia, Grade ¾ [3]: 0 n (%)
Lymphopenia, All grades [3]: 1 (33.3) n (%)
Lymphopenia, Grade ¾ [3]: 1 (33.3) n (%)
Nausea, All grades [3]: 1 (33.3) n (%)
Nausea, Grade ¾ [3]: 0 n (%)
Neutropenia, All grades [3]: 1 (33.3) n (%)
Neutropenia, Grade ¾ [3]: 0 n (%)
Pyrexia, All grades [3]: 1 (33.3) n (%)
Pyrexia, Grade ¾ [3]: 0 n (%)
Rash, All grades [3]: 0 n (%)
Rash, Grade ¾ [3]: 0 n (%)
Stomatitis, All grades [3]: 2 (66.7) n (%)
Stomatitis, Grade ¾ [3]: 0 n (%)
Thrombocytopenia, All grades [3]: 1 (33.3) n (%)
Thrombocytopenia, Grade ¾ [3]: 1 (33.3) n (%)
Vomiting, All grades [3]: 1 (33.3) n (%)
Vomiting, Grade ¾ [3]: 0 n (%)
AEs Total, All grades [4]: 8 (100.0) n (%)
AEs Total, Grade ¾ [4]: 4 (50.0) n (%)
Alanine aminotransferase increased, All grades [4]: 0 n (%)
Alanine aminotransferase increased, Grade ¾ [4]: 0 n (%)
